In US12337005B2, “Methods of treating thrombosis” (UNIVERSITY OF IOWA RESEARCH FOUNDATION, priority 2020, dated 2025):

Assays:
Assay type in all cases: cell-based
human platelets [1] = test: Thromboxane (TxB2) assay, human platelets; conditions: convulxin-stimulated human platelets pre-treated with ML265
Procedure: The TxB2 assay was done. Briefly, PRP or washed platelets (2×10^8 platelets/mL) was stimulated with convulxin or thrombin for 3 minutes utilizing an aggregometer, and the reaction was stopped by quickly freezing the sample in a dry ice-methanol bath. Before performing the TXB2 measurement assay, samples were thawed and centrifuged at 15,000 g for 3 minutes. The supernatants were diluted 1:50 with assay buffer and levels of TxB2 (a stable metabolite of TxA2) were determined in triplicate using an immunoassay kit (Abcam Thromboxane B2 enzyme-linked immunosorbent assay kit) according to the manufacturer's instructions.

integrin αIIbβ3 = test: Integrin αIIbβ3 activation (PAC-1 binding), human platelets; conditions: convulxin or TRAP-induced
human platelets [2] = test: ATP secretion from dense granules, human platelets; conditions: stimulus-activated human platelets pretreated with ML265
Procedure: Platelet rich plasma (PRP) or washed platelets (2×10^8/ml) treated with vehicle (DMSO) or ML265 (50 and 100 μM) were stirred (1200 rpm) at 37° C. for 2 min in a whole blood/optical lumi-aggregometer (Chrono-log; model 700-2) before the addition of agonists (convulxin, collagen, thrombin, PAR4, TRAP (PAR1 agonist) or adenosine diphosphate [ADP]). Aggregation was measured as percent change in light transmission, where 100% refers to transmittance through the blank sample (PRP/Buffer). Platelet dense granule secretion was determined by measuring the release of ATP using luciferin-luciferase reagent. To examine the effect of ML265 on ATP secretion, washed platelets were pretreated with vehicle (DMSO) or ML265 (50 and 100 μM) for 10 minutes before stimulation with various agonists. ATP release was performed in a lumi-aggregometer (Chrono-log; model 700-2) at 37° C.

human platelets [3] = test: Lactate measurement, human platelets; conditions: human platelets stimulated with convulxin or thrombin; ML265 pre-treated (50 or 100 μM)
Procedure: Washed platelets (5×10^8 platelets/mL) in DMEM (5 mM HEPES, 25 mM glucose, 1 mM pyruvate and 2 mM glutamine) were pre-treated with 50 or 100 μM of ML265 or vehicle (DMSO) for 10 mins and stimulated by convulxin (200 ng/ml) for 1 hr. Cells were centrifuged and supernatant was collected. Levels of L-lactate in supernatant were determined using a glycolysis cell based assay kit (Cayman; Item No. 600450) according to the manufacturer's instructions.

[4] = test system: PI3 kinase-mediated Akt/GSK3β signaling; test: Western blot of Akt/GSK3β phosphorylation, mouse platelets; conditions: murine platelets, convulxin or thrombin mediated, ML265 50 and 100 μM
Procedure: (§1) Platelet proteins were separated on 4-20% SDS-PAGE (sodium dodecyl sulfate-polyacrylamide gel electrophoresis) gradient gels and electrophoretic transferred to PVDF (polyvinylidene fluoride) membrane by using Bio-Rad western blotting system. For PKM2 dimer and tetramer study 6% native gels are used. Membranes were blocked with 5% BSA or skimmed milk in 10 mM Tris-HCl, 150 mM NaCl, pH 8.0 (TBS) containing 0.05% Tween-20 for one hour at room temperature. Blots were incubated for overnight with primary antibody, followed by horseradish peroxidase-labeled secondary antibody for one hour. Blots were developed using enhanced chemiluminescence and quantified using Image J software from NIH (Bethesda, MD, USA).

PKM2 dimers [5] = target: T1, PKM2 dimers (Homo sapiens, UniProt P14618); test: Native Western blot of PKM2 dimer and tetramer in stimulated human platelets; conditions: human platelets stimulated with convulxin (100 ng/ml) or thrombin (0.1 U/mL); vs vehicle
T1 construct: decreased PKM2 dimers in the human platelets stimulated with convulxin or thrombin; endogenous in cells; host or cells: human platelets from healthy volunteers
T1 sequence (P14618 2-531 limits assumed): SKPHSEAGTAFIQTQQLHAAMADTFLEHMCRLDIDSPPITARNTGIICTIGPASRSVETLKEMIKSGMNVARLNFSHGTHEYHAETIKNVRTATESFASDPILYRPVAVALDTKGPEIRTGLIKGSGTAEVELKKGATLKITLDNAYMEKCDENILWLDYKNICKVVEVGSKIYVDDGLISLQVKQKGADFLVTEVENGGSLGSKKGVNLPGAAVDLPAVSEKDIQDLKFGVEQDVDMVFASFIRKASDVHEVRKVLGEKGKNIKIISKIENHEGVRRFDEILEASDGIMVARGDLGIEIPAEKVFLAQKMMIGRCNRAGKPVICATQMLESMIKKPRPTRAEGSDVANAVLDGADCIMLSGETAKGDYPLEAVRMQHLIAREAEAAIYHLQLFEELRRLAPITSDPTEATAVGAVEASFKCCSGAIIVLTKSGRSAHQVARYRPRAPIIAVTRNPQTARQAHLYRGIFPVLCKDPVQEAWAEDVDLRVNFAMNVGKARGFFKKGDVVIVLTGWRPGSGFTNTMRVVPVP
Procedure: To obtain human platelets, blood was collected from healthy volunteers free from antiplatelet medication. Informed consent was taken. Platelets were prepared as described. Briefly, blood was collected in tubes containing anticoagulant citrate dextrose solution A and centrifuged at 180 g for 20 min. After addition of apyrase (0.6 U/ml) to PRP, platelets were sedimented by centrifugation at 800 g for 15 min. Cells were washed in buffer A (20 mM HEPES, 138 mM NaCl, 2.9 mM KCl, 1 mM MgCl2, 0.36 mM NaH2PO4, 1 mM EGTA (ethylene glycol tetraacetic acid), supplemented with 5 mM glucose, pH 6.2). Platelets were finally resuspended in buffer B (pH 7.4), which was the same as buffer ‘A’ but without EGTA and apyrase.
as §1, with “Blots were incubated for overnight with primary antibody, followed by horseradish peroxidase-labeled secondary antibody for one hour.” left out

PKM2 dimers [6] = target: T2, PKM2 dimers (Mus musculus, UniProt P52480); test: Native Western blot of PKM2 dimer and tetramer in stimulated mouse platelets; conditions: mouse platelets stimulated with convulxin or thrombin
T2 construct: PKM2 dimer and tetramer expression in platelets pre-treated with vehicle or ML265; endogenous in cells; host or cells: mouse platelets
T2 sequence (P52480 2-531 limits assumed): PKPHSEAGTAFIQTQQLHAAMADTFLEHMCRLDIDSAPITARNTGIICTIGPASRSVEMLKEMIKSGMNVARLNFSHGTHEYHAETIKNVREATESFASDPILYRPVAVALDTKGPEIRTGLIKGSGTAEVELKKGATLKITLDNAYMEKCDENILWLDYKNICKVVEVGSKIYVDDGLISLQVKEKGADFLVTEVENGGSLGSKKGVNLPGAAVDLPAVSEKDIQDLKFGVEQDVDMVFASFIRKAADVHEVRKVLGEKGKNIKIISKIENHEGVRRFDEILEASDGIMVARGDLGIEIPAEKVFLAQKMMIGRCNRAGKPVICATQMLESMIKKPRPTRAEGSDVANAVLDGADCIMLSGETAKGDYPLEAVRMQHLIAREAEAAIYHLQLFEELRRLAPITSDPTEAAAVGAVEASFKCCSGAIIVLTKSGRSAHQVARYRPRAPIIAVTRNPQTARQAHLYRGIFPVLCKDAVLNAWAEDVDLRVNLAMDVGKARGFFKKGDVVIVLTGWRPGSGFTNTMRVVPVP
Procedure: Mouse platelets were prepared. Blood from anesthetized mice was drawn from the retro-orbital plexus and collected in 1.5 mL polypropylene tubes containing 300 μL of enoxaparin (0.3 mg/mL; Sanofi-Aventis, US LLC). The blood was centrifuged at 100 g for 5 minutes, and the platelet-rich plasma (PRP) was collected in a fresh tube. To prevent platelet activation, PRP was incubated with PGI2 (2 μg/mL) at 37° C. for 5 minutes. PRP was further centrifuged at 600 g for 5 minutes. The obtained pellets were suspended in 1 mL modified Tyrode-N-2-hydroxyethylpiperazine-N′-2-ethane sulfonic acid (HEPES) buffer (137 mM NaCl, 0.3 mM Na2HPO4, 2 mM KCl, 12 mM NaHCO3, 5 mM N-2-hydroxyethylpiperazine-N′-2-ethane sulfonic acid, 5 mM glucose, 0.35% bovine serum albumin, pH 7.2). The washing step was repeated twice with Tyrode's to remove PGI2, and platelets were fluorescently labeled with calcein green (wherever required), AM (2.5 μg/mL; Molecular Probes) for 10 minutes at 37° C.
Platelet proteins were separated on 4-20% SDS-PAGE (sodium dodecyl sulfate-polyacrylamide gel electrophoresis) gradient gels and electrophoretic transferred to PVDF (polyvinylidene fluoride) membrane by using Bio-Rad western blotting system. For PKM2 dimer and tetramer study 6% native gels are used. […] Blots were developed using enhanced chemiluminescence and quantified using Image J software from NIH (Bethesda, MD, USA).

mouse platelets = test: Annexin V-affinity assay, mouse platelets; conditions: increasing concentrations of ML265
Procedure: Mouse and human washed platelets (1×10^8/ml) were pre-incubated with different concentrations of ML265 ([…]). Washed platelets activated with thrombin (0.5 U/ml)+convulxin (100 ng/ml) were used as a positive control. The samples were added to 1× Annexin V-binding buffer (BD Biosciences). Following this, annexin V-FITC antibody was added to each sample, gently mixed, and incubated at room temperature for 15 minutes in the dark. After incubation, 1× Annexin-binding buffer was added to each tube and analyzed by a Becton Dickinson FACSCalibur flow cytometer.

## Cn1c2cc([S+](C)[O-])sc2c2cnn(Cc3cccc(N)c3)c(=O)c21 (stereo not drawn) [ML265, 6-[(3-aminophenyl)methyl]-4,6-dihydro-4-methyl-2-(methylsulfinyl)-5H-thieno[2′,3′:4,5]pyrrolo[2,3-d]pyridazine-5-one]
Human platelets [1]
  levels of TxB2 (stable metabolite of TxA2): reduced
Integrin αIIbβ3
  activation of αIIbβ3 (PAC-1 binding): decreased
Human platelets [2]
  dense-granule secretion (ATP release): significant decrease
Human platelets [3]
  lactate production: significantly decreased
[4]
  Akt phosphorylation: attenuated
  GSK3β phosphorylation: attenuated
PKM2 dimers [5]
  PKM2 dimers: decreased
PKM2 dimers [6]
  PKM2 dimer formation: limited
Mouse platelets
  apoptosis in resting platelets (Annexin V binding): does not induce
